In patent publication US20230093476A1, “SUBSTITUTED FUSED IMIDAZOLE DERIVATIVES AND METHODS OF TREATING REFRACTIVE OCULAR DISORDERS” (vTv Therapeutics LLC, priority 2020, published 2023):

Experiments:
lens from aged mice = assay: In vitro lens elasticity, coverslip method, cultured lenses from aged mice; assay type: cell-based, C57BL/6J mice; conditions: for Change in Diameter (μm) (Mean ± S.E.): about 14 hours incubation at 37° C., mouse lens; for efficacy compared with positive control groups using lipoic acid: 50 μM and 500 μM; for lens elasticity relative to control: both concentrations of 50 μM and 500 μM; for dose dependence of elasticity increase: from the lower dose (50 μM) to the higher dose (500 μM)
Description: Test compounds (Examples 46 and 134) at 50 μM and 500 μM, Positive Control of Lipoic Acid at 50 μM and 500 μM, and control treatment were administered to lenses (12 per group) according to methods described in Invest Ophthalmol Vis Sci. 2016; 57:2851-2863. Briefly, seven month old C57BL/6J mice (male) were euthanized by CO2 overdose. Lenses were removed and placed in culture medium. Lenses were incubated for about 2 hours at 37° C. The medium was replaced with fresh medium supplemented with test compounds or with fresh medium. After about 14 hours incubation at 37° C., lenses were removed from culture medium.
(§1) Measurement of lens elasticity was performed according to the methods described in Invest Ophthalmol Vis Sci. 2016; 57:2851-2863. Briefly, lenses were placed on slides and photographed. A second photograph was taken after a coverslip was placed on the lens. Equatorial diameters changed by the coverslips placed on the lens were analyzed.

mouse lens = assay: Lens elasticity under 2-week repeated topical instillation (TID), coverslip method; assay type: in vivo, C57BL/6J mice; conditions: for efficacy compared with 1.5% solutions comprising LACE: 0.5% and 1.5% solutions; for efficacy compared with 1.5% solutions comprising LACE / Right Eye Change in Diameter (μm) (Mean ± S.E.): TID; for efficacy compared with 1.5% solutions comprising LACE / Right Eye Change in Diameter (μm) (Mean ± S.E.) / elasticity of the mouse lenses: 2 weeks; for Right Eye Change in Diameter (μm) (Mean ± S.E.): treated right eye; for elasticity of the mouse lenses: repeated instillation of 0.15%, 0.5%, 1.5% solutions TID
Description: Test compounds (Examples 46 and 134), positive control of Lipoic Acid Choline Ester (LACE), and control treatment were topically administered to right eyes according to methods described in Invest Ophthalmol Vis Sci. 2016; 57:2851-2863. Briefly, eight month old C57BL/6J mice (male) were treated with 2.5 μL of each test sample three times per day (TID) at about 4-hour intervals in the right eyes for 2 weeks. The left eyes were used as untreated controls. Each treatment group included 10 mice, and the vehicle group included 5 mice.
as §1, with “after 2-week treatment, mice were euthanized by CO2 overdose. Lenses were removed and analyzed for changes in elasticity. Lenses” for “lenses”

[1] = Table 3, left eye = untreated control eye of mice given 1.5% solution in right eye
[2] = Table 2, left eye = untreated control eye of mice given 1.5% solution in right eye

Compound | Change in Diameter (μm) (Mean ± S.E.) (lens from aged mice; 50 μM) | Change in Diameter (μm) (Mean ± S.E.) (lens from aged mice; 500 μM) | efficacy compared with positive control groups using lipoic acid (lens from aged mice) | lens elasticity relative to control (lens from aged mice) | dose dependence of elasticity increase (lens from aged mice) | efficacy compared with 1.5% solutions comprising LACE (mouse lens) | Right Eye Change in Diameter (μm) (Mean ± S.E.) (mouse lens; Table 3, 0.15% solution) | Right Eye Change in Diameter (μm) (Mean ± S.E.) (mouse lens; Table 3, 0.5% solution) | Right Eye Change in Diameter (μm) (Mean ± S.E.) (mouse lens; Table 3, 1.5% solution) | Left Eye Change in Diameter (μm) (Mean ± S.E.) (mouse lens; Table 3, left eye = untreated control eye of mice given 0.15% solution in right eye) | Left Eye Change in Diameter (μm) (Mean ± S.E.) (mouse lens; Table 3, left eye = untreated control eye of mice given 0.5% solution in right eye) | Left Eye Change in Diameter (μm) (Mean ± S.E.) (mouse lens; [1]) | elasticity of the mouse lenses (mouse lens) | Right Eye Change in Diameter (μm) (Mean ± S.E.) (mouse lens; Table 2, 0.15% solution) | Right Eye Change in Diameter (μm) (Mean ± S.E.) (mouse lens; Table 2, 0.5% solution) | Right Eye Change in Diameter (μm) (Mean ± S.E.) (mouse lens; Table 2, 1.5% solution) | Left Eye Change in Diameter (μm) (Mean ± S.E.) (mouse lens; Table 2, left eye = untreated control eye of mice given 0.15% solution in right eye) | Left Eye Change in Diameter (μm) (Mean ± S.E.) (mouse lens; Table 2, left eye = untreated control eye of mice given 0.5% solution in right eye) | Left Eye Change in Diameter (μm) (Mean ± S.E.) (mouse lens; [2])
O=C(O)CCCC[C@@H]1CCSS1 (racemic) [Lipoic Acid, reference compound] | 63.8 ± 6.5 | 83.8 ± 7.4 |  |  |  |  |  |  |  |  |  |  |  |  |  |  |  |  | 
Cn1c(Nc2nc3ccc(OC(F)(F)F)cc3s2)nc2cc(C(=O)NCCOCCO)ccc21 [Example 46, 1-Methyl-2-(6-trifluoromethoxy-benzothiazol-2-ylamino)-1H-benzoimidazole-5-carboxylic acid [2-(2-hydroxy-ethoxy)-ethyl]-amide] | 67.4 ± 5.6 | 80.4 ± 5.3 | almost the same | significantly increased | dose dependent increase | better than or equivalent to | 42.3 ± 4.0 | 63.2 ± 5.4 | 62.7 ± 3.4 | 32.2 ± 4.3 | 34.7 ± 4.5 | 41.3 ± 3.9 | significantly increased |  |  |  |  |  | 
CN(C)C(=O)CNC(=O)c1ccc2c(c1)nc(Nc1nc3ccc(C(F)(F)F)cc3s1)n2C [Example 134, 1-Methyl-2-(6-trifluoromethyl-benzothiazol-2-ylamino)-1H-benzimidazole-5-carboxylic acid dimethylcarbamoylmethyl-amide] | 59.6 ± 3.4 | 72.3 ± 4.0 | almost the same | significantly increased | dose dependent increase | better than or equivalent to |  |  |  |  |  |  | significantly increased | 46.0 ± 5.0 | 74.3 ± 8.3 | 80.0 ± 5.3 | 33.5 ± 5.9 | 51.7 ± 5.3 | 39.7 ± 6.5
C[N+](C)(C)CCOC(=O)CCCC[C@@H]1CCSS1 [LACE, Lipoic Acid Choline Ester, reference compound] |  |  |  |  |  |  |  |  | 60.8 ± 2.9 |  |  | 30.1 ± 6.0 |  |  |  | 64.5 ± 4.5 |  |  | 41.5 ± 5.2
